Measurements reported in the NIST ThermoML archive (doi:10.1016/j.jct.2014.06.030).

Assay: xn = mol fraction of the nth substance listed
Conditions: 100 kPa, Liquid; for speed of sound: Sing-around technique in a fixed-path interferometer; for mass density: Vibrating tube method

Cc1ccccc1Cl [2-chlorotoluene] + C1CCCCC1
Conditions | mass density, 298.15 K [kg/m3] | mass density, 303.15 K [kg/m3] | mass density, 308.15 K [kg/m3] | speed of sound, 298.15 K [m/s] | speed of sound, 303.15 K [m/s] | speed of sound, 308.15 K [m/s]
x1 = 0.1098 | 808.15 | 803.38 | 798.58 | 1251.3 | 1227.6 | 1204.7
x1 = 0.1437 | 818.67 | 813.9 | 809.09 | 1251 | 1227.7 | 1205
x1 = 0.1987 | 835.72 | 830.93 | 826.11 | 1251.1 | 1228.2 | 1205.9
x1 = 0.2356 | 847.14 | 842.33 | 837.5 | 1251.5 | 1228.8 | 1206.7
x1 = 0.2874 | 863.12 | 858.3 | 853.47 | 1252.4 | 1230 | 1208.1
x1 = 0.3256 | 874.88 | 870.06 | 865.22 | 1253.4 | 1231.2 | 1209.5
x1 = 0.3876 | 893.92 | 889.08 | 884.22 | 1255.3 | 1233.6 | 1212.2
x1 = 0.4135 | 901.85 | 897.01 | 892.15 | 1256.2 | 1234.8 | 1213.4
x1 = 0.4834 | 923.2 | 918.34 | 913.47 | 1259.3 | 1238.4 | 1217.4
x1 = 0.5243 | 935.64 | 930.78 | 925.9 | 1261.4 | 1240.7 | 1220
x1 = 0.5763 | 951.42 | 946.54 | 941.65 | 1264.3 | 1244 | 1223.6
x1 = 0.6143 | 962.9 | 958.02 | 953.13 | 1266.5 | 1246.6 | 1226.5
x1 = 0.6654 | 978.29 | 973.4 | 968.5 | 1269.9 | 1250.3 | 1230.7
x1 = 0.7154 | 993.29 | 988.4 | 983.48 | 1273.4 | 1254.3 | 1235
x1 = 0.7654 | 1008.2 | 1003.3 | 998.42 | 1277.2 | 1258.4 | 1239.6
x1 = 0.8165 | 1023.4 | 1018.5 | 1013.6 | 1281.3 | 1262.9 | 1244.4
x1 = 0.8324 | 1028.1 | 1023.2 | 1018.3 | 1282.6 | 1264.3 | 1246
x1 = 0.8965 | 1047.1 | 1042.2 | 1037.3 | 1288.4 | 1270.3 | 1252.3

C1CCOCC1 [tetrahydropyran] + C1CCCCC1
Conditions | mass density, 298.15 K [kg/m3] | mass density, 303.15 K [kg/m3] | mass density, 308.15 K [kg/m3] | speed of sound, 298.15 K [m/s] | speed of sound, 303.15 K [m/s] | speed of sound, 308.15 K [m/s]
x1 = 0.0987 | 782.47 | 777.69 | 772.88 | 1251.6 | 1226.7 | 1202.3
x1 = 0.1432 | 786.46 | 781.65 | 776.83 | 1250.7 | 1225.6 | 1201
x1 = 0.1876 | 790.51 | 785.69 | 780.84 | 1249.8 | 1224.6 | 1199.8
x1 = 0.2378 | 795.2 | 790.36 | 785.49 | 1249 | 1223.6 | 1198.7
x1 = 0.2791 | 799.14 | 794.28 | 789.39 | 1248.5 | 1223 | 1197.8
x1 = 0.3165 | 802.76 | 797.88 | 792.98 | 1248.1 | 1222.6 | 1197.3
x1 = 0.3782 | 808.86 | 803.96 | 799.03 | 1247.9 | 1222.4 | 1197
x1 = 0.4237 | 813.45 | 808.53 | 803.59 | 1248 | 1222.5 | 1197.1
x1 = 0.4521 | 816.36 | 811.43 | 806.48 | 1248.3 | 1222.7 | 1197.4
x1 = 0.4982 | 821.15 | 816.2 | 811.24 | 1248.8 | 1223.3 | 1198.1
x1 = 0.5318 | 824.7 | 819.74 | 814.76 | 1249.5 | 1224 | 1198.9
x1 = 0.5643 | 828.18 | 823.2 | 818.21 | 1250.2 | 1224.9 | 1199.9
x1 = 0.5918 | 831.15 | 826.17 | 821.16 | 1251 | 1225.7 | 1200.8
x1 = 0.6236 | 834.62 | 829.63 | 824.61 | 1252 | 1226.8 | 1202.1
x1 = 0.6982 | 842.94 | 837.92 | 832.88 | 1254.8 | 1230 | 1205.6
x1 = 0.7341 | 847.03 | 841.99 | 836.93 | 1256.4 | 1231.7 | 1207.7
x1 = 0.7949 | 854.07 | 849.02 | 843.94 | 1259.3 | 1235 | 1211.4
x1 = 0.8632 | 862.2 | 857.11 | 852 | 1262.9 | 1238.9 | 1215.8
